SMILES strings stand for the structures. A value given as a limit tells only on which side of the number the result lay.

Here are results for 2 compounds from US20250082656A1, “DOSAGE REGIMENS FOR TREATMENT OF DENGUE INFECTION” (Atea Pharmaceuticals, Inc., priority 2022, published 2025).

Data set [1] deals with DENV-3. In words: microbe, parasite or virus in culture. The settings on record: Dengue virus, DENV3, Huh-7.
Data set [2] relates to Respiratory syncytial virus. In words: Antiviral specificity panel, RSV. It is filed as cell-based. The settings on record: human respiratory syncytial virus, HEp-2; RNA virus, HEp2.
A further data set concerns Adenovirus. In words: Antiviral specificity panel, Adenovirus. It is filed as cell-based. The following applies: unidentified adenovirus; DNA virus, Vero.
The subject of data set [3] is DENV-3. Kind of data set: Antiviral assay with FC read-out, DENV-3. In kind it is cell-based. The following applies: Dengue virus, DENV3; DENV-3 CH4348, Huh-7, FC read-out.
Data set [4] can be described thus: Bone marrow progenitor cell assay, erythroid (E). The settings on record: human, erythroid (E) human bone marrow progenitor cells.
A further data set is described as follows: clinical. The following applies: both, human, in vivo, steady-state, human plasma, mean±SD; for AUC: AUCtau.
The subject of another data set is HCV. Kind of data set: Antiviral specificity panel, HCV. It is filed as cell-based, hepatitis C virus.
Data set [5] can be described thus: Cytotoxicity in H1-HeLa cells. It is filed as cell-based. The following applies: human, Table 2, H1-HeLa. The procedure: (§1) To assess the antiviral specificity of Compound 1 (AT-281), serial dilutions were incubated with various host cell lines infected with a panel of DNA and RNA viruses other than flaviviruses. The activity of Compound 1 (AT-281) was measured in infected cells using the neutral red assay to determine the effective concentration required to inhibit viral replication 50% (EC50) (described in Example 3) and the threshold concentration required to obtain a perceptible effect on 50% of the cells incubated without virus (CC50). Compound 1 (AT-281) had no activity against the DNA viruses tested and was only weakly or not active against several RNA viruses (Table 2).

A short description of data set [6]: Cytotoxicity in Vero cells. In kind it is cell-based. The following applies: African green monkey, Table 2, Vero, parallel to the virus of the line. As for the experimental part:
as §1

The subject of the next data set is West Nile (WNV). In words: Neutral red assay of virus-induced CPE, WNV. It is filed as cell-based. The settings on record: Kern 515, WNo2, Huh-7, neutral red assay.
In a further data set the test system is DENV-4. In words: Antiviral assay with FC read-out, DENV-4. In kind it is cell-based. The settings on record: Dengue virus, DENV4; DENV-4 TVP-360, Huh-7, FC read-out.
A further data set concerns Dengue-2 (DENV-2). Kind of data set: Neutral red assay of virus-induced CPE, DENV-2. It is filed as cell-based. The settings on record: DENV2, DENV-2 New Guinea C (NGC), Huh-7, neutral red (NR) assay.
The target of data set [7] is human cellular DNA-dependent DNA polymerase β (Homo sapiens, UniProt P06746). The following applies: previously shown (Good et al.); read-out: estimated IC50; cited from earlier work.
A short description of data set [8]: In vivo formation of AT-9010 in PBMCs, mice.
The target in the next data set is DENV2 MTase domain (Dengue virus type 2, UniProt P14340). Kind of data set: Thermal shift assay, DENV2 MTase domain. The following applies: read-out: ΔTM.
The next data set deals with DENV2 RdRp domain (Dengue virus type 2, UniProt P14340). In words: Thermal shift assay, DENV2 RdRp domain. The following applies: read-out: ΔTM.
A short description of data set [9]: In vivo formation of AT-9010 in PBMCs, rats. The arrangement: species or system SD rats. The settings on record: single oral dose 300 mg/kg, 24 h. As for the experimental part: Monkeys were given an oral dose of Compound 2 (AT-752) equivalent to Compound 1 (AT-281) at 55 mg/kg and blood collected at 12, 24 and 48 h. […] Mouse PBMCs were pooled from 3 animals per time point; Rat and monkey data expressed as mean+/−SD (n=2-3 per time point). […] The experimental procedure is provided in Example 15.
Male naïve SD rats (Beijing Vital River Laboratory Animals Co. Ltd., China) were administered a dose of AT-752 at 300 mg/kg in 40% PEG400, 10% solutol HS15, 50% 100 mM citrate buffer, pH 4.5 (v/v) by oral gavage. Blood samples (n=4) were collected at 1, 2, 4, 8, 12 and 24 h post-dose, plasma separated and stored at −70° C. […] For PBMCs, nine male naïve SD rats were administered a dose of Compound 2 (AT-752) (at a Compound 1 (AT-281) equivalent dose of 300 mg/kg) by oral gavage.
Pharmacokinetic measurements for FIGS. 11, 12, 13, 14, and 15 were analyzed using LC-MS/MS according to the protocol described herein. Plasma samples were prepared for MS analysis by adding internal standards and extracting with 20 volumes chilled ACN. After vortex (800 rpm for 10 min) and centrifugation (4,000 rpm, 15 min, 4° C.), the supernatants (25 μL) were diluted with an equal volume of H2O, mixed and spun again. […]

The conditions of data set [10]: 10 μM Compound 1 for 6 h, peak at 10 h after initiation of exposure.

What is called EC50 is the midpoint of the concentration-response curve. As usually defined, the CC50 is the concentration at which the toxic effect on the cells reaches its halfway point. The term AUC denotes concentration integrated over time. The low end stands for low exposure, the high end for high exposure. Broadly, the Cmax is the peak of the concentration-time curve. Regarding `CNc1nc(N)nc2c1ncn2[C@@H]1O[C@H](CO[P@](=O)(N[C@@H](C)C(=O)OC(C)C)Oc2ccccc2)[C@@H](O)[C@@]1(C)F` [Compound 1, isopropyl ((R)-(((2R,3R,4R,5R)-5-(2-amino-6-(methylamino)-9H-purin-9-yl)-4-fluoro-3-hydroxy-4-methyltetrahydrofuran-2-yl)methoxy)(phenoxy)phosphoryl)-L-alaninate], the EC50 is 750 nM in the data set on DENV-3 [1]; greater than 100000 nM in data set [2]; greater than 100000 nM in the data set on Adenovirus; 1330 nM in the data set with DENV-3 [3]; 50 nM with HCV (Hepatitis C virus, RNA virus, Huh-7); 1410 nM with West Nile (WNV). Besides, the EC50 is 1190 nM with DENV-4 and 480 nM in the data set on Dengue-2 (DENV-2). Moreover, in data set [4], the half-maximal cytotoxic concentration (CC50) at 14 days is greater than 100000 nM. In addition, the AUC amounted to 2610 ± 640 ng·h/mL in the data set “clinical” (750 mg, Compound 2 750 mg BID); 2540 ± 572 ng·h/mL in the data set “clinical” (750 mg, Compound 2 750 mg TID); 3090 ± 1530 ng·h/mL in the data set “clinical” (1000 mg, Compound 2 1000 mg QD). Moreover, the Cmax came out at 3490 ± 1280 ng/mL in the data set “clinical” (750 mg, Compound 2 750 mg BID); 3010 ± 754 ng/mL in “clinical” (750 mg, Compound 2 750 mg TID); 3810 ± 1670 ng/mL in “clinical” (1000 mg, Compound 2 1000 mg QD). The “selectivity towards HCV” value with HCV (CC50/EC50) is recorded as > 2,000. The CC50 in data set [5] and in [6] was greater than 100000 nM throughout.
By IC50 is commonly meant the point on the concentration scale where inhibition reaches its midpoint. As usually defined, the ΔTm is the shift of the melting midpoint relative to a reference. For `C[C@@]1(F)[C@H](O)[C@@H](COP(=O)(O)OP(=O)(O)OP(=O)(O)O)O[C@H]1n1cnc2c(=O)[nH]c(N)nc21` [Compound 5], in data set [7], the IC50 is greater than 100000 nM. Moreover, the “concentration of AT-9010 in PBMCs” value was 0.297 pmol/10^6 cells in [8] (loading dose 500 mg/kg then 250 mg/kg 4 h later, 4 h after the second dose); 0.322 pmol/10^6 cells in data set [8] (loading dose 500 mg/kg then 250 mg/kg 4 h later, 12 h after the second dose); 0.092 pmol/10^6 cells in data set [8] (single oral dose 50 mg/kg, 12 h); 0.439±0.218 pmol/10^6 cells in data set [9]. The ΔTm at 100 µM was 4 ± 0.1 °C at DENV2 MTase domain and 3.8 ± 0.1 °C at DENV2 RdRp domain. Besides, the “mean peak concentration of AT-9010 in PBMCs” value in data set [10] came to 1.88±0.01 pmol/10^6 cells.
